This is an account of results in US5958770A, “Glycoalkaloids” (priority 1990, dated 1999).

Read-outs that look alike come from different tables or passages of the source.

Series [1] has as its system human cells, ovarian cancer cells, melanoma cells, cells infected with viruses, normal fibroblasts, normal bone marrow cells, leukemic cells and normal …. Briefly: Inhibition of the action of the mixture of solasodine glycosides by free sugars and sugars bound to bovine serum albumin. Format: cell-based. The following applies: free sugar and bound to bovine serum albumin.

Series [2] deals with unstimulated and stimulated lymphocytes. The following applies: unstimulated and stimulated lymphocytes.
Experimental: (§5) This was cultured for 48 hours and pulsed with tritiated thymidine for a further 24 hours. In the inhibition studies, the cell concentration was 8×10^5 /ml.
(§6) All cells were harvested by vacuum filtration by washing in 250 μl of each of phosphate buffered saline, 5% trichloroacetic acid, 1.0M NaCl and 95% ethanol and subjected to β-scintillatian counting. Similarly, peripheral human blood lymphocytes were isolated and cultured 2×10^5 lymphocytes in CO2 1640TCM 10% HIFCS. Lymphocytes were stimulated with 20 μg/ml PHA, Con A or PWM, and cultured for 48 hrs followed by a 24 hr pulse. […] Cell concentrations were 8×10^4 /well total volume 250 μl. The dpm of the experimental replicates were expressed as a percentage of the mean value of the controls, and the mean value of the experimental replicates calculated.
Series [3] relates to human fibroblasts. Briefly: cells. The method, then:
(§1) The inhibition of cell replication by steroid alkaloids is determined by the inhibition of the incorporation of ^3 H thymidine into DNA. Using this technique, it should be possible to monitor any preferential inhibition of uptake of ^3 H thymidine by cancer cells.
(§2) Cells were maintained as monolayers in RPM1-1640 tissue culture media (Grant Island Biological Co) buffered with N-2-hydroxy-ethylpiperazine-N-2-ethanesulphonic acid pH 7.5 and supplemented with 10% heat inactivated fetal calf serum (FCS): (i) a human ovarian cancer cell line (C180-135), (ii) HeLa cells, (iii) human fibroblasts, and (iv) as a cell suspension of lymphoblastoid cells (EBV transformed lymphocytes). Monolayers were trypsinized to form a cell suspension. […] Cell concentration was adjusted to 2×10^5 cells/ml, and 2×10^4 cells were added in replicates of 10 to the wells (1×10^5 /ml well) of HA microtitre plates (Millipore Corp., USA). The cells were preincubated at 37.5° C. for 7 hours prior to the addition of 50 μl of the cytotoxic drug followed by the addition of 50 μl 5 uCi/ml of ^3 H thymidine, in the same tissue culture media 21 hours later. Incubation was continued for a total of 24 hours, which includes the pre-incubation time.
(§3) Appropriate DMSO cytotoxicity studies were also conducted. Solasodine glycosides were supplied as a mixture (BEC), and as separate components, solamargine, solasonine, a mixture of di- and mono-glycosides and the aglycone solasodine. All cytotoxic drugs were further diluted with HIFCS/TCM before testing. 5×10^4 ovarian cancer cells (200 μl/chamber of a chamber of microscope slide (Lab Tek Miles Scientific) were used. Controls received 50 μl HIFCS/TCM and experimental chambers 50 μl of solasodine glycosides (BEC) 1.5-3.8 μM/L after 7 hrs preincubation, and incubated for a further 3 hrs. Similarly, the cells were treated with the aglycone solasodine 19.4-96.8 μM/L. The cells were fixed and examined by the Papanicolaou method.

Series [4] deals with lymphoblastoid cells (EBV transformed lymphocytes). Briefly: cells. The procedure:
as §1, §2, §3

Series [5] deals with HeLa cells. Briefly: cells. The procedure:
as §1, §2, §3

A short description of series [6]: in vitro. The following applies: human, unstimulated lymphocytes.
Experimental: as §5, §6
A short description of series [7]: in vitro. The following applies: human, con a stimulated lymphocytes.
Experimental: as §5, §6
Series [8] is described as follows: in vitro. The following applies: human, pha stimulated lymphocytes.
Experimental: as §5, §6
Series [9] deals with ovarian cancer cells, HeLa cells, lymphoblastoid cells, fibroblasts. The series is described as follows: Cytotoxicity / inhibition of tritiated thymidine uptake, cell types taken together. The following applies: for inhibition of tritiated thymidine uptake / cytotoxicity (words): 11.3 μM/L, various cell types. The method, then:
as §1, §2, §3

The nature of series [10]: in vitro. The following applies: human, pwm stimulated lymphocytes.
Experimental: as §5, §6
Series [11] deals with ovarian cancer cells. Briefly: Inhibition of tritiated thymidine uptake, ovarian cancer cells. The following applies: Homo sapiens. The procedure:
as §1, §2, §3

Series [12] deals with Con A stimulated lymphocytes. Briefly: DMG cytotoxicity with carbohydrates, Con A stimulated lymphocytes. The class given is cell-based, human. The procedure:
(§4) A mixture of solasodine glycosides (BEC), of which the active compound is solamargine and from which the aglycone solasodine is derived was prepared for use in cytotoxicity assays as determined by the uptake of tritiated thymidine. Inhibition studies were carried out with lactose, lactosyl-albumin, galactose or rhamnose (Sigma Chemical Co., USA). All experimental replicates were related to their own controls. Total volume of replicates was 250 μl (carbohydrates added in 50 μl tissue culture media+10% fetal calf serum), and the cell concentrations were 8×10^4 /ml.

The test system of series [13] is Sarcoma 180. Briefly: Survival of mice with Sarcoma 180, with and without rhamnose. The class given is in vivo. The procedure:
Herston White mice with a body weight of approximately 30 g and aged 8-10 weeks served as recipients. Twelve mice were randomly chosen for each experimental group.
Sarcoma 180 tumour cells (5×10^5) were inoculated intraperitoneally into mice. This caused a mortality of 100% with a median survival time of 20 days in the control groups. A standard mixture of glycoalkaloids (BEC) was dissolved in dimethylsulfoxide at a concentration of 0.5 g BEC/100 ml dimethylsulfoxide. Similar solutions were made up but also contained 0.3125, 0.625 and 0.9375 g of rhamnose. These solutions were administered intraperitoneally in concentrations of 8 mg/kg animal weight for BEC (FIG. 9) without (-.tangle-solidup.-), and with 5 mg (-.quadrature.-), 10 mg (-.cndot.-) and 15 mg (-Δ-) rhamnose/kg animal weight. The first dose was given 0.5 hours after administration of the Sarcoma 180 tumour cells. The remaining three doses were given at daily intervals. Dimethylsulfoxide and rhamnose had no effect on Sarcoma 180 activity in the absence of BEC (-.smallcircle.-).

Series [14] deals with unstimulated lymphocytes. The series is described as follows: DMG cytotoxicity with carbohydrates, unstimulated lymphocytes. The class given is cell-based, human. The method, then:
as §4

The test system of series [15] is ovarian cancer cells. The series is described as follows: Solamargine cytotoxicity in presence and absence of carbohydrates, ovarian cancer cells. Format: cell-based, human. The following applies: ovarian cancer cells. The procedure: as §4
The test system of series [16] is HeLa cells. Briefly: Solamargine cytotoxicity in presence and absence of carbohydrates, HeLa cells. Format: cell-based, human. The following applies: HeLa cells. The method, then:
as §4

Series [17] relates to lymphoblastoid cells. The series is described as follows: Solamargine cytotoxicity in presence and absence of carbohydrates, lymphoblastoid cells. Format: cell-based. The following applies: lymphoblastoid cells. The procedure: as §4
Series [18] has as its system fibroblasts. The series is described as follows: Solamargine cytotoxicity in presence and absence of carbohydrates, fibroblasts. The class given is cell-based, human. The following applies: fibroblasts. The procedure:
as §4

As to `CC(=O)N[C@H]1C(O)O[C@H](CO)[C@@H](O)[C@@H]1O` (some centres unmarked) [NAc glucosamine], in series [1], the “inhibitory effect on the action of the mixture of solasodine glycosides” value (“inhibitory effect on the action” for short) is on record as “inhibitory effects”.

For `CC(=O)N[C@@H]1[C@@H](O)[C@H](O)[C@@H](CO)O[C@@H]1O` [NAc glucose], in [1], the “inhibitory effect on the action” value is on record as “inhibitory effects”.

Turning to `CC(=O)N[C@@H]1C(O)O[C@H](CO)[C@@H](O)[C@@H]1O` (some centres unmarked) [NAc mannosamine], the “inhibitory effect on the action” value in series [1] is on record as “inhibitory effects”.

In the case of `CC(=O)NC1C(O)OC(CO)C(O)C1O` (centres unmarked) [NAc mannose], in series [1], the “inhibitory effect on the action” value was “inhibitory effects”.

On to `C[C@@H]1CC[C@@]2(NC1)O[C@H]1C[C@H]3[C@@H]4CC=C5C[C@@H](O[C@@H]6O[C@H](CO)[C@H](O)[C@H](O[C@@H]7O[C@H](CO)[C@@H](O)[C@H](O)[C@H]7O)[C@H]6O[C@@H]6O[C@@H](C)[C@H](O)[C@@H](O)[C@H]6O)CC[C@]5(C)[C@H]4CC[C@]3(C)[C@H]1[C@@H]2C` [Solasonine, solasonine], for which the “cytotoxicity (words)” value is listed as “ineffective” in series [2] and “absence of any effect” in series [2] (listed as solasonine). The viability at 11.3 µM in series [3] (Homo sapiens, Fibroblast, read-out: Percentage Cell Survival) came to 96 ± 8.3%; in series [4] (Homo sapiens, Lymphoblastoid cell, read-out: Percentage Cell Survival), 117 ± 8%; in series [5] (Homo sapiens, HeLa, read-out: Percentage Cell Survival) it was 105 ± 9.5%; in [6], 97 ± 11.8%; in [7] it was 97 ± 7%; in series [8], 103 ± 5.7%. Besides, the viability at 11.3 µM in series [10] turned out to be 110 ± 3.8%; in series [11] (read-out: Percentage Cell Survival), 93 ± 8%. Moreover, the “inhibition of tritiated thymidine uptake / cytotoxicity (words)” value in series [9] is “ineffective”; in [9] (listed as solasonine), “not cytotoxic”.

On to `O=C[C@H](O)[C@@H](O)[C@H](O)[C@H](O)CO` [glucose], for which the “inhibitory effect on the action” value in series [1] is “inhibitory effects”. Further, the “inhibition of the action of DMG” value in series [12] is “inhibit the action of DMG”; in series [14], “do not inhibit DMG”. The “effect on S180 activity in the absence of BEC” value in series [13] is “no effects”.

Turning to `OC[C@H]1O[C@@H](O[C@H]2[C@H](O)[C@@H](O)C(O)O[C@@H]2CO)[C@H](O)[C@@H](O)[C@H]1O` (some centres unmarked) [lactose, reference compound], the “inhibition of solamargine cytotoxicity” value in series [15] is recorded as “Partial inhibition”; in [16] it was “not inhibited”; in series [17], “partial inhibition”; in series [18] it was “completely inhibited”. Besides, the “inhibitory effect on the action” value in series [1] is on record as “inhibitory effects”.

Regarding `O=C[C@@H](O)[C@@H](O)[C@H](O)[C@H](O)CO` [mannose], the “inhibitory effect on the action” value in series [1] is reported as “inhibitory effects”.

For the compound `C[C@H]1CC[C@@H]2[C@@H](C)[C@H]3[C@H](C[C@H]4[C@@H]5CC=C6C[C@@H](O[C@@H]7O[C@H](CO)[C@H](O)[C@H](O[C@@H]8O[C@H](CO)[C@@H](O)[C@H](O)[C@H]8O)[C@H]7O[C@@H]7O[C@@H](C)[C@H](O)[C@@H](O)[C@H]7O)CC[C@]6(C)[C@H]5CC[C@]34C)N2C1` [solanine], the “lysosomotropic/mitochondrial inhibition” value in [9] is reported as “lack of lysosomotropic/mitochondrial inhibition”.

On to `CC[C@]1(O)C[C@@H]2CN(CCc3c([nH]c4ccccc34)[C@@](C(=O)OC)(c3cc4c(cc3OC)N(C)[C@H]3[C@@](O)(C(=O)OC)[C@H](OC(C)=O)[C@]5(CC)C=CCN6CC[C@]43[C@@H]65)C2)C1` [vinblastine, reference compound], for which the “TR50 (thymidine ratio relative to ovarian cancer cells)” value in series [3] (FB / OvCa) turned out to be 0.2; in series [4] (LCL / OvCa) it was 0.27; in [5] (HeLa / OvCa), 0.28. Further, the IC50 turned out to be 1.9 µM in series [3] (Homo sapiens, Fibroblast, read-out: LD50 (dose to inhibit 50% tritiated thymidine uptake)); 2.6 µM in series [4] (human gammaherpesvirus 4, LCL, read-out: LD50 (dose to inhibit 50% tritiated thymidine uptake)); 2.7 µM in series [5] (Homo sapiens, HeLa, read-out: LD50 (dose to inhibit 50% tritiated thymidine uptake)); 9.5 µM in series [11] (read-out: LD50 (dose to inhibit 50% tritiated thymidine uptake)). Further, in series [3] (fibroblasts/lymphoblastoid cells), the “TR50 for fibroblasts/lymphoblastoid cells” value is recorded as 0.73. Also, the CC50 in series [6] was 11 µM; in series [7], 7.8 µM; in series [8] it was 19.2 µM; in series [10] it was 10.8 µM. In series [9] (normal versus cancer cells), the “cytotoxicity to normal cells relative to cancer cells” value is reported as “equally or more cytotoxic to normal cells relative to cancer cells”.

Take galactose [reference compound]: the “inhibition of solamargine cytotoxicity” value is recorded as “partial inhibition” in series [15], “not inhibited” in [16], “partial inhibition” in [17] and “completely inhibited” in series [18]. Also, in [1], the “inhibitory effect on the action” value was “inhibitory effects”.

On to rhamnose, for which the “inhibition of solamargine cytotoxicity” value in [18] is recorded as “inhibition by rhamnose is also demonstrable”. The entries for the “inhibition of the action of DMG” value in [12] and in series [14] were “inhibit the action of DMG” and “do not inhibit DMG”, respectively. Further, the “effect on S180 activity in the absence of BEC” value in series [13] was “no effects”. The “inhibition of the efficacy of BEC” value in [13] (mice with S180) is on record as “inhibits the efficacy of BEC”.
